The NIST ThermoML archive (doi:10.1021/je025631i)
Numbers after ± are expanded uncertainties.

Experiments:
[1] = refractive index (Na D-line) (dimensionless); settings: 293.15 K; 101.33 kPa; Liquid; Abbe refractometer
[2] = Liquid; for mass density: 293.15 K, 101.33 kPa, Vibrating tube method

SMILES	refractive index [1]	mass density [2]	vapor or sublimation pressure ([2]; 348.15 K)	vapor or sublimation pressure ([2]; 356.74 K)	vapor or sublimation pressure ([2]; 363.15 K)	vapor or sublimation pressure ([2]; 376.95 K)	vapor or sublimation pressure ([2]; 383.15 K)	vapor or sublimation pressure ([2]; 398.79 K)	vapor or sublimation pressure ([2]; 382.79 K)	vapor or sublimation pressure ([2]; 405.54 K)	vapor or sublimation pressure ([2]; 429.34 K)
CCCCCCCC [octane]	1.3973 ± 0.0003	702.44 ± 0.18 kg/m3	19.31 ± 0.37 kPa	26.66 ± 0.3 kPa	33.52 ± 0.42 kPa	53.33 ± 0.36 kPa	64.25 ± 0.52 kPa	101.3 ± 0.5 kPa			
CC1=CCC2CC1C2(C)C (stereo unspecified) [2-pinene]	1.4657 ± 0.0003	858.06 ± 0.16 kg/m3	7.35 ± 0.33 kPa		13.32 ± 0.35 kPa		26.98 ± 0.4 kPa		26.66 ± 0.34 kPa	53.33 ± 0.41 kPa	101.32 ± 0.5 kPa
